# According to US6340575B1, “Methods and compositions for treating abnormal cell growth related to unwanted guanine nucleotide exchange factor activity” (Onyx Pharmaceuticals, Inc., priority 1997, dated 2002):
# T1: Type II Rac-GEF (Homo sapiens, UniProt Q8N5V2)
# T1 construct: made in house; host or cells: E. coli BL21(DE3)pLysS, plasmid pET21a
# T1 sequence (Q8N5V2 264-710 limits assumed): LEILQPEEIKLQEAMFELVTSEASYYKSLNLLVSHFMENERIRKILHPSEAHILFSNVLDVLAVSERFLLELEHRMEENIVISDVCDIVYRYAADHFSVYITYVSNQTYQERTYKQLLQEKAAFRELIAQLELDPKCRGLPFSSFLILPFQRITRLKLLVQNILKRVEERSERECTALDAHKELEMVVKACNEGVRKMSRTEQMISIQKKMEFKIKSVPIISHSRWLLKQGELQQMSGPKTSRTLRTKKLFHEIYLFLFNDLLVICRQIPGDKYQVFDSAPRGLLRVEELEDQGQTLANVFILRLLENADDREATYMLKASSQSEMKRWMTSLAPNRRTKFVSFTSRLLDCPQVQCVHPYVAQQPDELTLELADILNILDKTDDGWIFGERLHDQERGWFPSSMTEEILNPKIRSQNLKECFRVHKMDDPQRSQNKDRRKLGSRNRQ
# Assays:
# [1] = target: T2, 85 kD portion of human Tiam-1 protein (Homo sapiens, UniProt Q13009); experiment: Tiam-1 Rac GEF activity assay (32P-GTP filter binding), 85 kD Tiam-1; format: biochemical; settings: 85 kD Tiam-1 truncation; room temperature, 10 minutes
# T2 construct: This prote in contained an intact PDZ domain, Dbl-homology (DH) domain and adjacent pleckstrin homology (PH) domain; made in house; host or cells: baculovirus-infected Sf9 (S. frugiperda) cells
# T2 sequence (Q13009 837-1591 limits assumed): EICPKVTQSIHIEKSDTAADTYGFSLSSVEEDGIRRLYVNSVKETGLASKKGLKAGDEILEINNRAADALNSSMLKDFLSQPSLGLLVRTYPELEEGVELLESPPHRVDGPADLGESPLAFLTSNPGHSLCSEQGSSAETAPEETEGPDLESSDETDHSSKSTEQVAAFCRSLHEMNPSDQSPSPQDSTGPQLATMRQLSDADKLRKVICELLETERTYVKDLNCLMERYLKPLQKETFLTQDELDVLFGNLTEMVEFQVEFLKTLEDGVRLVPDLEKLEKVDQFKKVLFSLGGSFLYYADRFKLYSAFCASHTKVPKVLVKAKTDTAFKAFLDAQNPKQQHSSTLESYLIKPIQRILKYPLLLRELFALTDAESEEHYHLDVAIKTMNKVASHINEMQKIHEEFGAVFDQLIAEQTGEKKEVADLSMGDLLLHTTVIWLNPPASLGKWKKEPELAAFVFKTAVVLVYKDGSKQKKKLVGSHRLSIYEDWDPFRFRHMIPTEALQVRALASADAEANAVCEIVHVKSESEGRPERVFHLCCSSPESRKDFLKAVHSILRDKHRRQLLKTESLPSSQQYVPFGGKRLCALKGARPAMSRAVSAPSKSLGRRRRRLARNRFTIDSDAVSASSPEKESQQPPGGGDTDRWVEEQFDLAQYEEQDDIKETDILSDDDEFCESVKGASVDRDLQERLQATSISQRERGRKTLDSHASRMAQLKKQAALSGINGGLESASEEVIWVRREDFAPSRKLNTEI
# Description: (§1) The GEF activity of the various Tiam-1 constructs described above was determined in the presence and absence of certain compounds. The following assay was utilized. Reactions were conducted at room temperature in Buffer A (20 mM Hepes pH7.3, 50 mM NaCl, 2 mM DTT, 2 mM MgCl2). All proteins and compounds were diluted to 4× their final concentrations in Buffer A (GTPases were diluted in Buffer A containing 1 μM GDP). To dilute Ascorbyl Stearate, Ascorbyl Palmitate, and Stearic Acid, 25 mM ETOH solutions were slowly added to Buffer A while vortexing vigorously. Other lipids were resuspended in aqueous solution with vortexing and bath sonication and then diluted into Buffer A. Reactions were prepared and at time 0, λ-^32P-GTP (DuPont NEN #NEG006H) was added to 4.5 nM, and after 10 minutes reactions were stopped by filtering onto nitrocellulose filters (Millipore #HAWP02500) and immediately washed with wash buffer (25 mM Tris 7.5, 100 mM NaCl, 30 mM MgCl2). Bound λ-^32P-GTP was measured, using standard techniques.
# The 85 kD portion of human Tiam-1 protein was produced in insect cells and purified by affinity chromatography, as described above. This prote in contained an intact PDZ domain, Dbl-homology (DH) domain and adjacent pleckstrin homology (PH) domain (FIG. 3). […] Several other lipids were tested to determine the specificity of activation. […] As a control, experiments were run to determine if IP3, IP2, ascorbic acid, stearic acid and ascorbic acid with stearic acid were sufficient to activate the GEF activity of Tiam-1.
# Type II Rac-GEF = target: T1, Type II Rac-GEF; experiment: Guanine nucleotide exchange activity of Type II Rac-GEF with added PH domain ligand; format: biochemical; settings: Type II form containing the Dbl insert region
# Description: (§2) Two Rac-GEFs were tested for guanine nucleotide activity. Firstly, a Glu-epitope tag (MEYMPMEIRHD) (SEQ ID NO:32) was engineered onto the carboxy-terminal 423 amino acids of the Rac GEF encoded by EST No. 167059 by introducing the oligos 5′-[…]-3′ SEQ ID NO.5 and the complementary 5′-[…]-3′ SEQ ID NO.6 into the XhoI/EcoRI sites of the clone. The protein encoded by this construct is referred to as Type I Rac-GEF.
# (§3) Next, the sequence encoding the insertion in the Dbl homology region, as described in Example 1, was engineered into the open reading frame in the expression plasmid pET21a (Novagen). The protein encoded by this construct is referred to as Type II Rac-GEF. The resulting expression plasmids were introduced into E. coli strain BL21(DE3)pLysS (Novagen), and the epitope tagged protein expression was induced with IPTG. The expressed proteins were purified using a resin with the antibody to the Glu-epitope covalently attached. The resulting proteins were partially pure and were assayed for exchange activity on Rac1, RhoA and Cdc42. See, Hart, in U.S. Ser. No. 60/029,979, filed Nov. 6, 1996 now abandoned.
# ΔPH versions of Tiam-1 = experiment: Tiam-1 Rac GEF activity assay, truncations with deleted C-terminal PH domain; format: biochemical, human; settings: truncations lacking half of the C-terminal PH domain and the rest of the C-terminus
# Description: ΔPH versions of Tiam-1: The oligonucleotides 5′-[…]-3′ SEQ ID NO.24 and 5′-[…]-3′ SEQ ID NO.25 were used as linkers to recircularize Eco47III (4487) and XmaI-digested pAcC4-based expression vectors containing the 135 kD, 106 kD, 85 kD, and 66 kD versions of Tiam-1.
# as §1, with “techniques. […]” for “techniques.”
# Type I Rac-GEF = experiment: Guanine nucleotide exchange activity of Type I Rac-GEF with added PH domain ligand; format: biochemical, human; settings: Type I form lacking the Dbl insert region
# Description: as §2, §3
# 135 kD Tiam-1 truncation = target: T3, 135 kD Tiam-1 truncation (Homo sapiens, UniProt Q13009); experiment: Tiam-1 Rac GEF activity assay (32P-GTP filter binding), 135 kD Tiam-1; format: biochemical
# T3 construct: made in house; host or cells: baculovirus-infected Sf9 (S. frugiperda) cells
# T3 sequence (Q13009 402-1591 limits assumed): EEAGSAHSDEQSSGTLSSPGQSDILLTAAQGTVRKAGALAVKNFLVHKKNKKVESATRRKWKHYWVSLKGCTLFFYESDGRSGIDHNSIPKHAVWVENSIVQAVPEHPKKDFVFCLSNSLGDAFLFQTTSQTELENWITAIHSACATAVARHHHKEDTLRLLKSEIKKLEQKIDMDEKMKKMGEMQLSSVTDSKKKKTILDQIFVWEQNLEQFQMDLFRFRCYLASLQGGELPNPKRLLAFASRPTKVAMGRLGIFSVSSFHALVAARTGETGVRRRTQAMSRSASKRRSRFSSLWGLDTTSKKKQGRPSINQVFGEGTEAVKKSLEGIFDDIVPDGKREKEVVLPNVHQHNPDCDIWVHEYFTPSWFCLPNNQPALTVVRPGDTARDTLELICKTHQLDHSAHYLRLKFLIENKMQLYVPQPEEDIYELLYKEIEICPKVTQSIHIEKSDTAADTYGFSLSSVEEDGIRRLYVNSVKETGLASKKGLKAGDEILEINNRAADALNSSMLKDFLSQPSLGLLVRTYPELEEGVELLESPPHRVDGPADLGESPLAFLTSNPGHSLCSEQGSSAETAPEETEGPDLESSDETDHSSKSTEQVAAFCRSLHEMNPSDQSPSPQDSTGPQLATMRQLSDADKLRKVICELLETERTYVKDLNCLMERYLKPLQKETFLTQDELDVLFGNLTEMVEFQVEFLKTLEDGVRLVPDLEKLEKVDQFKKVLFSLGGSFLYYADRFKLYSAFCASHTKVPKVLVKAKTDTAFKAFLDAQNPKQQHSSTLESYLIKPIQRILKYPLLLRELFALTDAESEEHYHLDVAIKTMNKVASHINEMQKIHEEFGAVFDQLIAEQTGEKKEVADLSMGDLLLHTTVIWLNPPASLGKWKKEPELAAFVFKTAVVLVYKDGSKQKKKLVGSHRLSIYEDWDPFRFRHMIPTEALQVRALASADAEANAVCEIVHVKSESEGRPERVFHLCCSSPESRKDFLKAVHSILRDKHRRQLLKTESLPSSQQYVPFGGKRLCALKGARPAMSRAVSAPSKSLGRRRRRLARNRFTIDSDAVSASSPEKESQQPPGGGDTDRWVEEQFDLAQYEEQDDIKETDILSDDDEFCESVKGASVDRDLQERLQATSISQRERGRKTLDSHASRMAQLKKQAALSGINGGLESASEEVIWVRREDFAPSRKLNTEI
# Description: as §1
# (§4) It has been previously reported that Tiam-1 has GEE activity in the absence absence of lipids. See, Michiels, F., Habets, G. G., Stam, J. C., van der Kammen, R. A., and Collard, J. G. (1995) Nature 375,338-340. Those studies used a miouse version containing additional upstream sequences, including the N-terminal PH domain and the coiled-coil region. […]
# [2] = tested on: Other truncations of Tiam-1, all containing the DH and PH domains; experiment: Tiam-1 Rac GEF activity assay, other truncations containing the DH and PH domains; format: biochemical, human; settings: other Tiam-1 truncations containing DH and PH domains
# Description: as §1, §4
# RhoA = experiment: Exchange activity of Rac GEF on RhoA; format: biochemical; settings: partially pure Glu-tagged protein
# Description: as §2, §3
# Rac1 = experiment: Exchange activity of Rac GEF on Rac1; format: biochemical; settings: partially pure Glu-tagged protein
# Description: as §2, §3
# Cdc42 = experiment: Exchange activity of Rac GEF on Cdc42; format: biochemical; settings: partially pure Glu-tagged protein
# Description: as §2, §3
Molecule,stimulation of Tiam-1 GEF activity (nucleotide exchange on Rac 1) [1],other results
"phosphatidylinositol-3,4,5-trisphosphate",weak effects,
TRITON X-100,not to significantly stimulate,
O[C@@H](CS)[C@@H](O)CS [DTT],not to significantly stimulate,
NP40,not to significantly stimulate,
phosphatidylinositol-4-phosphate,significantly enhanced,
CCCCCCCCO[C@@H]1O[C@H](CO)[C@@H](O)[C@H](O)[C@H]1O [nOG],not to significantly stimulate,
"O=C(O)CCP(CCC(=O)O)CCC(=O)O [TCEP, Tris (2-carboxyethyl)phosphine]",not to significantly stimulate,
O=P(O)(O)O[C@@H]1[C@H](O)[C@H](O)[C@@H](OP(=O)(O)O)[C@H](OP(=O)(O)O)[C@H]1O [IP3],incapable of stimulating GEF activity,
phosphatidyiholine,little or no effect,
phosphatidylglycerol,little or no effect,
"phosphatidylinositol-4,5-bisphosphate",significantly enhanced,
phosphatidylinositol,little or no effect,
CCCCCCCCCCCCCCCC(=O)OC[C@H](O)[C@H]1OC(=O)C(O)=C1O [Ascorbyl palmitate],significantly enhanced,
O=C1O[C@H]([C@@H](O)CO)C(O)=C1O [ascorbic acid],incapable of stimulating GEF activity,
CCCCCCCCCCCCCCCCCC(=O)O [stearic acid],incapable of stimulating GEF activity,
phosphatidylserine,weak effects,
CCCCCCCCCCCCCCCCCC(=O)OC[C@H](O)[C@H]1OC(=O)C(O)=C1O [ascorbyl stearate],stimulated the rate of Tiam-1-mediated nucleotide exchange,effect of addition on exchange activity of Type II Rac-GEF (Type II Rac-GEF): strongly stimulated; activation of Tiam-1 GEF activity (ΔPH versions of Tiam-1): not activated; effect of addition on exchange activity of Type I Rac-GEF (Type I Rac-GEF): unaffected; stimulation of Tiam-1 GEF activity towards Rac (135 kD Tiam-1 truncation): greatly stimulated; stimulation of GEF activity on Rac 1 [2]: stimulated GEF activity
"Rac GEF: Glu-epitope tagged Type I and Type II Rac-GEF proteins expressed in E. coli, partially pure (protein) MEYMPMEIRHDLEILQPEEIKLQEAMFELVTSEASYYKSLNLLVSHFMENERIRKILHPSEAHILFSNVLDVLAVSERFLLELEHRMEENIVISDVCDIVYRYAADHFSVYITYVSNQTYQERTYKQLLQEKAAFRELIAQLELDPKCRGLPFSSFLILPFQRITRLKLLVQNILKRVEERSERECTALDAHKELEMVVKACNEGVRKMSRTEQMISIQKKMEFKIKSVPIISHSRWLLKQGELQQMSGPKTSRTLRTKKLFHEIYLFLFNDLLVICRQIPGDKYQVFDSAPRGLLRVEELEDQGQTLANVFILRLLENADDREATYMLKASSQSEMKRWMTSLAPNRRTKFVSFTSRLLDCPQVQCVHPYVAQQPDELTLELADILNILDKTDDGWIFGERLHDQERGWFPSSMTEEILNPKIRSQNLKECFRVHKMDDPQRSQNKDRRKLGSRNRQ",,exchange activity on RhoA (RhoA): displays activity; exchange activity on Rac1 (Rac1): primarily selective; exchange activity on Cdc42 (Cdc42): displays activity
